Test results published in paper PMC10447463, “Data-mining unveils structure–property–activity correlation of viral infectivity enhancing self-assembling peptides” (Nature Communications, 2023).
Read-outs that look alike come from different tables or passages of the source.

Key:
[1] = format: physicochemical
How it was run: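 Preformed peptide fibrils (1 mg/mL) mixed with 50 µM ThT in PBS, 15 min at RT, fluorescence ex 440/em 488 nm versus PBS blank, triplicates. Zeta potential: peptides at 1 mg/mL in PBS pH 7.4, aged 1 d at RT, diluted in 1 mM KCl, Smoluchowski from electrophoretic mobility.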

[2] = Turbidity, derived count rate of scattered light; format: physicochemical; conditions: for Log Count Rate: log of derived count rate
How it was run: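 Samples: 1 mg/mL in PBS pH 7.4 (from DMSO), 1 d at RT, then diluted in 1 mM KCl immediately before measurement. Triplicates, two independent runs averaged.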

[3] = ThT fluorescence relative to blank (42.1851851851852 a.u.)
[4] = relative to blank 42.1851851851852 a.u.
[5] = category 1 or 0 from count rate, key not given
[6] = derived count rate of scattered light, mean, std deviation in next column
[7] = derived count rate of scattered light, mean, std deviation in separate column
[8] = ThT fluorescence relative to blank, blank = 42.1851851851852
[9] = Fig S8 panels A, C, asymmetric log errors
[10] = Fig S8 panels B, D, turbidity, derived count rate of scattered light
[11] = derived count rate from zeta measurement, mean
[12] = derived count rate of scattered light

Substance | Tht rel to blank (42.1851851851852) [1, 3] | Tht category (> 1.5 to blank = +) ([1]; category 1/0) | Tht rel to blank (42.1851851851852) [1, 4] | Zeta Count Rate Category ([2]; category 1/0, no key printed) | Zeta Count Rate Category [2, 5] | Zeta Count Rate / kcps [2, 6] [kcps] | Zeta Count Rate / kcps [2, 7] [kcps] | Tht rel to blank (42.1851851851852) [1, 8] | Log Count Rate [2, 9] | Log Count Rate ([2]; Fig S8 panels B, D) | Count Rate [2, 10] | Zeta Count Rate Category ([2]; category 1 / 0, no key given) | Zeta Count Rate / kcps [2, 12] [kcps] | other results
CKIKIQINMWQ | – | – | – | – | – | – | – | – | – | – | – | – | – | Tht category (> 2 to blank = +) ([1]; Fig S10 panel D): 1 (ThT. Cat is 1, if Rel. ThT >2); ThT Cat. ([1]; Fig S10 panel E): 1 (ThT. Cat is 1, if Rel. ThT >2); ThT Cat, ([1]; ThT category, 1 if Rel. ThT >2): 1 (ThT. Cat is 1, if Rel. ThT >2); ThT Cat. ([1]; ThT fluorescence category, 1 if Rel. ThT >2): 1 (ThT. Cat is 1, if Rel. ThT >2); ThT Cat. / ThT-Fluorescence (categorical) ([1]; ThT-active if fluorescence at least twice the control): 1 (ThT. Cat is 1, if Rel. ThT >2); Log10 Count Rate ([2]; Log10 of derived count rate of scattered light (turbidity)): 3.274; Count Rate / kcps ([2]; derived count rate of scattered light at 633 nm, 173°, from zeta-potential measurement, 0.1 mg/mL in 1 mM KCl after 1 d at 1 mg/mL in PBS, turbidity / microscopic aggregation, mean of triplicate): 1881 kcps; Log10 Count Rate ([2]; log10 of derived count rate of scattered light (turbidity)): 3.274; Log10 Count Rate ([2]; turbidity, Log10 of derived count rate of scattered light, Figure 3A source data): 3.274
CKIKIQINMWQ [MG1] | 4.566 | 1 (ThT. Cat is 1, if Rel. ThT >2) | 4.566 | 1 | 1 | 1881 | 1881 | – | – | – | – | – | – | –
CKIKQII [MG4a] | 3.914 | 1 (ThT. Cat is 1, if Rel. ThT >2) | 3.914 | – | 0 | 74.6 | 74.6 | 3.914 | 1.873 | 1.873 | 74.6 | 0 | 74.6 | Zeta Count Rate / kcps [2, 11]: 74.6 kcps; Zeta Count Rate Category ([2]; key not given): 0
CKIKQIINM [BL1] | 14.67 | 1 (ThT. Cat is 1, if Rel. ThT >2) | 14.67 | – | 1 | 9058 | 9058 | 14.67 | – | – | – | 1 | 9058 | –
CKIKQIINMWQ [MG5a / CK17] | 48.46 | 1 (ThT. Cat is 1, if Rel. ThT >2) | 48.46 | – | 1 | 8317 | 8317 | 48.46 | 3.92 | 3.92 | 8316.83 | 1 | 8317 | Zeta Count Rate / kcps [2, 11]: 8317 kcps; Zeta Count Rate Category ([2]; key not given): 1
CKWKWQW [KB4] | – | 0 (ThT-inactive (N-Fold <2)) | 1.321 | 1 | – | 7511 | – | – | 3.876 | 3.876 | 7511.27 | – | – | –
CKYKYQY [KB2] | – | 1 (ThT. Cat is 1, if Rel. ThT >2) | 3.119 | 1 | – | 1061 | – | – | – | – | – | – | – | –
CQFQFQF [QBL4] | – | 1 (ThT. Cat is 1, if Rel. ThT >2) | 13.03 | 1 | – | 7929 | – | – | 3.899 | 3.899 | 7928.97 | – | – | –
CRFRFQF [CN10] | – | 1 (ThT. Cat is 1, if Rel. ThT >2) | 3.455 | 1 | – | 390.5 | – | – | – | – | – | – | – | –
CRFRVPF [CN8] | – | 0 (ThT-inactive (N-Fold <2)) | 0.9438 | 0 | – | 73.97 | – | – | – | – | – | – | – | –
CSISIQI [TM141] | – | 1 (ThT. Cat is 1, if Rel. ThT >2) | 15.04 | 1 | – | 10241.1 | – | – | 4.01 | 4.01 | 10241.1 | – | – | –
CSISIQINM [TM145] | – | 1 (ThT. Cat is 1, if Rel. ThT >2) | 5.919 | 1 | – | 3291 | – | – | – | – | – | – | – | –
HHHHKIKIKIKIYYYY [TM6] | 9.935 | 1 (ThT. Cat is 1, if Rel. ThT >2) | – | – | – | 12792.53333 | – | 9.935 | 4.107 | 4.107 | 12792.5 | 1 | 12792.53333 | Zeta Count Rate Category ([2]; category 1 or 0 derived from the count rate, key not given): 1
KAKAKAQA [TG15] | 1.151 | 0 (ThT-inactive (N-Fold <2)) | – | – | 0 | 76.93 | – | 1.151 | – | – | – | 0 | 76.93 | –
KAKAQA [JJA2 / TM153] | 1.172 | 0 (ThT-inactive (N-Fold <2)) | 1.172 | 0 | 0 | 20.93 | 20.93 | – | – | – | – | – | – | –
KAKAQANM [TM152] | 1.082 | 0 (ThT-inactive (N-Fold <2)) | 1.082 | 0 | 0 | 42.5 | 42.5 | – | – | – | – | – | – | –
KAKAQANMWQ [JG3] | 0.9886 | 0 (ThT-inactive (N-Fold <2)) | 0.9886 | 0 | 0 | 56.17 | 56.17 | – | – | – | – | – | – | Tht category (> 1.5 to blank = +) ([1]; FigS26): 0 (Tht category (> 1.5 to blank = +))
KFKFKFQF [TG18] | 41.89 | 1 (ThT. Cat is 1, if Rel. ThT >2) | – | – | 1 | 1036 | – | 41.89 | – | – | – | 1 | 1036 | –
KFKFQF [JJA6] | 1.156 | 0 (ThT-inactive (N-Fold <2)) | 1.156 | 1 | 1 | 183.4 | 183.4 | – | – | – | – | – | – | –
KFKFQFNM [BL6a] | 1.202 | 0 (ThT-inactive (N-Fold <2)) | 1.202 | 1 | 1 | 131.8 | 131.8 | – | – | – | – | – | – | –
